Source: US11759462B2, “Spirocyclic compounds as tryptophan hydroxylase inhibitors” (priority 2013, dated 2023)

biological target: T1, Recombinant human TPH1 (MBP tagged) (Homo sapiens, UniProt P17752); test: TPH1 in vitro inhibition assay (kinetic fluorescence); type: biochemical; conditions: TPH1 Range (TPH1 inhibition IC50)
T1 construct: cloning full length human TPH1 cDNA in to a bacterial pMAL-c5E expression vector; made in house; host or cells: E. coli BL21 (DE3)
T1 sequence (P17752 1-444): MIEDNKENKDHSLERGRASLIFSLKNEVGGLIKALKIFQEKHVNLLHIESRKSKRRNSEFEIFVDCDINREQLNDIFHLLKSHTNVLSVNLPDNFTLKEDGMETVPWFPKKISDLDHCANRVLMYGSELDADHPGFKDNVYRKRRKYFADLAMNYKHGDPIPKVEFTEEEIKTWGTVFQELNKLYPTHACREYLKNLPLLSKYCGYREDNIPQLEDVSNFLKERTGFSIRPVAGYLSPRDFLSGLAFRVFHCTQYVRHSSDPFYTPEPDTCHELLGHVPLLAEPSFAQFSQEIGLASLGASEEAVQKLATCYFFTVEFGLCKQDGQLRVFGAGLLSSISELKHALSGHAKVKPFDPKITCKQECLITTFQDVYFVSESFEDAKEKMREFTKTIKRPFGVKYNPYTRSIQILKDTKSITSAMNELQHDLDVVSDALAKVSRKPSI
Outline: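 Final mix: 15 nM MBP-TPH1, 30 μM Trp, 36 μM 6-methyltetrahydropterin, 25 μM ferrous ammonium sulfate, 50 mM MES pH 7.1, 1% DMSO, room temperature.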

`Nc1nc(O[C@H](c2ccc(Cl)cc2-c2ccccc2)C(F)(F)F)cc(N2CCC3(CC2)CN[C@@H](C(=O)O)C3)n1` [Example 54h, (R)-8-(2-amino-6-((R)-1-(5-chloro-[1,1′-biphenyl]-2-yl)-2,2,2-trifluoroethoxy)pyrimidin-4-yl)-2,8-diazaspiro[4.5]decane-3-carboxylic acid] and `Nc1nc(O[C@@H](c2ccc(Cl)cc2-c2ccccc2)C(F)(F)F)cc(N2CCC3(CC2)CN[C@@H](C(=O)O)C3)n1` [Example 54i, (R)-8-(2-amino-6-((S)-1-(5-chloro-[1,1′-biphenyl]-2-yl)-2,2,2-trifluoroethoxy)pyrimidin-4-yl)-2,8-diazaspiro[4.5]decane-3-carboxylic acid] fall in the same range of IC50: 3000 to 10000 nM for the first, 3000 to 10000 nM for the second.

`Nc1nc(O[C@@H](c2ccc(Cl)cc2-c2ccccc2)C(F)(F)F)cc(N2CCC3(CC2)CN[C@H](C(=O)O)C3)n1` [Example 54j, (S)-8-(2-amino-6-((S)-1-(5-chloro-[1,1′-biphenyl]-2-yl)-2,2,2-trifluoroethoxy)pyrimidin-4-yl)-2,8-diazaspiro[4.5]decane-3-carboxylic acid] and `Cc1ccn(-c2cc(-c3ccc(C)c(C)c3)ccc2[C@H](Oc2cc(N3CCC4(CC3)CN[C@H](C(=O)O)C4)nc(N)n2)C(F)(F)F)n1` [Example 54k, (S)-8-(2-amino-6-((S)-1-(3′,4′-dimethyl-3-(3-methyl-1H-pyrazol-1-yl)-[1,1′-biphenyl]-4-yl)-2,2,2-trifluoroethoxy)pyrimidin-4-yl)-2,8-diazaspiro[4.5]decane-3-carboxylic acid] fall in the same range of IC50: 50 to 300 nM for the first, 50 to 300 nM for the second.

First: Cc1ccn(-c2cc(-c3ccc(C)c(C)c3)ccc2[C@H](Oc2cc(N3CCC4(CC3)CN[C@@H](C(=O)O)C4)nc(N)n2)C(F)(F)F)n1 [Example 54l, (R)-8-(2-amino-6-((S)-1-(3′,4′-dimethyl-3-(3-methyl-1H-pyrazol-1-yl)-[1,1′-biphenyl]-4-yl)-2,2,2-trifluoroethoxy)pyrimidin-4-yl)-2,8-diazaspiro[4.5]decane-3-carboxylic acid]
Second: Cc1ccn(-c2cc(-c3ccc(C)c(C)c3)ccc2[C@@H](Oc2cc(N3CCC4(CC3)CN[C@@H](C(=O)O)C4)nc(N)n2)C(F)(F)F)n1 [Example 54m, (R)-8-(2-amino-6-((R)-1-(3′,4′-dimethyl-3-(3-methyl-1H-pyrazol-1-yl)-[1,1′-biphenyl]-4-yl)-2,2,2-trifluoroethoxy)pyrimidin-4-yl)-2,8-diazaspiro[4.5]decane-3-carboxylic acid]
The IC50 of the first is higher: 3000 to 10000 nM for the first, 300 to 3000 nM for the second. The second is the more potent here.

same assay, conditions: read-out: TPH1 Range (TPH1 inhibition IC50)

`Nc1nc(OC(c2c(Br)cccc2Br)C(F)(F)F)cc(N2CCC3(CC2)CN[C@H](C(=O)O)C3)n1` (stereo partly drawn) [Example 47, (3S)-8-(2-Amino-6-(1-(2,6-dibromophenyl)-2,2,2-trifluoroethoxy)pyrimidin-4-yl)-2,8-diazaspiro[4.5]decane-3-carboxylic acid] and `Nc1nc(O[C@H](c2cc(Br)ccc2Br)C(F)(F)F)cc(N2CCC3(CC2)CN[C@H](C(=O)O)C3)n1` [Example 48, (S)-8-(2-Amino-6-((R)-1-(2,5-dibromophenyl)-2,2,2-trifluoroethoxy)pyrimidin-4-yl)-2,8-diazaspiro[4.5]decane-3-carboxylic acid] fall in the same range of IC50: 300 to 3000 nM for the first, 300 to 3000 nM for the second.

`CCCc1ccc(-c2cccc(S(C)(=O)=O)c2)c([C@@H](Oc2cc(N3CCC4(CC3)CN[C@H](C(=O)O)C4)nc(N)n2)C(F)(F)F)c1` [Example 49, (S)-8-(2-Amino-6-((R)-2,2,2-trifluoro-1-(3′-(methylsulfonyl)-4-propyl-[1,1′-biphenyl]-2-yl)ethoxy)pyrimidin-4-yl)-2,8-diazaspiro[4.5]decane-3-carboxylic acid] and `CCCc1ccc([C@@H](Oc2cc(N3CCC4(CC3)CN[C@H](C(=O)O)C4)nc(N)n2)C(F)(F)F)c(-c2cccc(S(C)(=O)=O)c2)c1` [Example 54a, (S)-8-(2-Amino-6-((R)-2,2,2-trifluoro-1-(3′-(methylsulfonyl)-5-propyl-[1,1′-biphenyl]-2-yl)ethoxy)pyrimidin-4-yl)-2,8-diazaspiro[4.5]decane-3-carboxylic acid] cannot be ordered by IC50: < 50 nM for the first, < 50 nM for the second.

First: C/C=C/c1ccc(-c2cccc(S(C)(=O)=O)c2)c([C@@H](Oc2cc(N3CCC4(CC3)CN[C@H](C(=O)O)C4)nc(N)n2)C(F)(F)F)c1 [Example 50, (S)-8-(2-Amino-6-((R)-2,2,2-trifluoro-1-(3′-(methylsulfonyl)-4-((E)-prop-1-en-1-yl)-[1,1′-biphenyl]-2-yl)ethoxy)pyrimidin-4-yl)-2,8-diazaspiro[4.5]decane-3-carboxylic acid]
Second: C/C=C/c1ccc([C@@H](Oc2cc(N3CCC4(CC3)CN[C@H](C(=O)O)C4)nc(N)n2)C(F)(F)F)c(-c2cccc(S(C)(=O)=O)c2)c1 [Example 53, (S)-8-(2-Amino-6-((R)-2,2,2-trifluoro-1-(3′-(methylsulfonyl)-5-((E)-prop-1-en-1-yl)-[1,1′-biphenyl]-2-yl)ethoxy)pyrimidin-4-yl)-2,8-diazaspiro[4.5]decane-3-carboxylic acid]
The IC50 of the first is higher: 50 to 300 nM for the first, < 50 nM for the second.

`Cc1ccc(-c2ccc([C@@H](Oc3cc(N4CCC5(CC4)CN[C@H](C(=O)O)C5)nc(N)n3)C(F)(F)F)c(-c3cccc(S(C)(=O)=O)c3)c2)cc1C` [Example 52a, (S)-8-(2-Amino-6-((R)-1-(3,4-dimethyl-3″-(methylsulfonyl)-[1,1′:3′,1″-terphenyl]-4′-yl)-2,2,2-trifluoroethoxy)pyrimidin-4-yl)-2,8-diazaspiro[4.5]decane-3-carboxylic acid] and `Cc1ccc(-c2ccc([C@@H](Oc3cc(N4CCC5(CC4)CN[C@H](C(=O)O)C5)nc(N)n3)C(F)(F)F)c(-c3ccccc3)c2)cc1C` [Example 54f, (S)-8-(2-amino-6-((R)-1-(3,4-dimethyl-[1,1′:3′,1″-terphenyl]-4′-yl)-2,2,2-trifluoroethoxy)pyrimidin-4-yl)-2,8-diazaspiro[4.5]decane-3-carboxylic acid] cannot be ordered by IC50: < 50 nM for the first, < 50 nM for the second.

First: CS(=O)(=O)c1cccc(-c2cc(-c3ccc4ncccc4c3)ccc2[C@@H](Oc2cc(N3CCC4(CC3)CN[C@H](C(=O)O)C4)nc(N)n2)C(F)(F)F)c1 [Example 52b, (S)-8-(2-amino-6-((R)-2,2,2-trifluoro-1-(3′-(methylsulfonyl)-5-(quinolin-6-yl)-[1,1′-biphenyl]-2-yl)ethoxy)pyrimidin-4-yl)-2,8-diazaspiro[4.5]decane-3-carboxylic acid]
Second: CS(=O)(=O)c1ccc([C@@H](Oc2cc(N3CCC4(CC3)CN[C@H](C(=O)O)C4)nc(N)n2)C(F)(F)F)c(-c2ccccc2)c1 [Example 54d, (S)-8-(2-amino-6-((R)-2,2,2-trifluoro-1-(5-(methylsulfonyl)-[1,1′-biphenyl]-2-yl)ethoxy)pyrimidin-4-yl)-2,8-diazaspiro[4.5]decane-3-carboxylic acid]
The IC50 of the first is lower: < 50 nM for the first, 50 to 300 nM for the second. The first is the more potent here.

Compared with `CC(C)Oc1ccc(-c2ccc([C@@H](Oc3cc(N4CCC5(CC4)CN[C@H](C(=O)O)C5)nc(N)n3)C(F)(F)F)c(-c3ccccc3)c2)cc1` [Example 54b, (S)-8-(2-amino-6-((R)-2,2,2-trifluoro-1-(4-isopropoxy-[1,1′:3′,1″-terphenyl]-4′-yl)ethoxy)pyrimidin-4-yl)-2,8-diazaspiro[4.5]decane-3-carboxylic acid], `CCCOc1ccc(-c2ccc([C@@H](Oc3cc(N4CCC5(CC4)CN[C@H](C(=O)O)C5)nc(N)n3)C(F)(F)F)c(-c3ccccc3)c2)cc1` [Example 54c, (S)-8-(2-amino-6-((R)-2,2,2-trifluoro-1-(4-propoxy-[1,1′:3′,1″-terphenyl]-4′-yl)ethoxy)pyrimidin-4-yl)-2,8-diazaspiro[4.5]decane-3-carboxylic acid] is lower in IC50: 50 to 300 nM for the first, < 50 nM for the second. The second is the more potent here.

`CCCOc1ccc(-c2ccc([C@@H](Oc3cc(N4CCC5(CC4)CN[C@H](C(=O)O)C5)nc(N)n3)C(F)(F)F)c(-c3ccccc3)c2)cc1F` [Example 54e, (S)-8-(2-amino-6-((R)-2,2,2-trifluoro-1-(3-fluoro-4-propoxy-[1,1′:3′,1″-terphenyl]-4′-yl)ethoxy)pyrimidin-4-yl)-2,8-diazaspiro[4.5]decane-3-carboxylic acid] and `Nc1nc(O[C@H](c2ccc(-c3ccccc3)cc2-c2ccccc2)C(F)(F)F)cc(N2CCC3(CC2)CN[C@H](C(=O)O)C3)n1` [Example 54g, (S)-8-(6-((R)-1-([1,1′:3′,1″-terphenyl]-4′-yl)-2,2,2-trifluoroethoxy)-2-aminopyrimidin-4-yl)-2,8-diazaspiro[4.5]decane-3-carboxylic acid] fall in the same range of IC50: 50 to 300 nM for the first, 50 to 300 nM for the second.

`Nc1nc(O[C@H](c2ccc(-c3ccccc3)cc2)C(F)(F)F)cc(N2CCC3(CC2)CN[C@H](C(=O)O)C3)n1` [Example 55a, (S)-8-(6-((R)-1-([1,1′-biphenyl]-4-yl)-2,2,2-trifluoroethoxy)-2-aminopyrimidin-4-yl)-2,8-diazaspiro[4.5]decane-3-carboxylic acid] and `COc1cc(C#N)cc(-c2ccc([C@@H](Oc3cc(N4CCC5(CC4)CN[C@H](C(=O)O)C5)nc(N)n3)C(F)(F)F)cc2)c1` [Example 55aa, (S)-8-(2-amino-6-((R)-1-(3′-cyano-5′-methoxy-[1,1′-biphenyl]-4-yl)-2,2,2-trifluoroethoxy)pyrimidin-4-yl)-2,8-diazaspiro[4.5]decane-3-carboxylic acid] fall in the same range of IC50: 50 to 300 nM for the first, 50 to 300 nM for the second.
